Measurements from US9549932B2, “2-(morpholin-4-yl)-1,7-naphthyridines” (BAYER PHARMA AKTIENGESELLSCHAFT, priority 2014, dated 2017).
pIC50: −log10 of the molar value. Where a name gives a salt, the structure may show the parent alone. Read-outs that look alike come from different tables or passages of the source.

Target: full-length human ATR protein (Homo sapiens (Human), UniProt Q13535)
Assay: Binding assay ATR (TR-FRET tracer displacement)
Conditions: TR-FRET
From the text: To determine of binding activity of the test compounds, full-length human ATR protein was expressed and purified together with ATRIP as described above. Furthermore, a fluorescently labelled compound (either tracer A or B as described above) was used as a tracer molecule. Detection of the binding event of the tracer was achieved by time-resolved fluorescence energy transfer (TR-FRET). We used an anti-GST-Terbium antibody (CisBio) that binds to the GST-tag at the N-terminus of ATR-kinase. […] Displacement of the fluorescent tracer by a test compound leads to a reduction of the TR-FRET-signal.
For the assay 50 nl of a 100-fold concentrated solution of the test compound in DMSO was pipetted into a black low volume 384well microtiter plate (MTP, Greiner Bio-One, Frickenhausen, Germany). […] The ATR-working solution was incubated for 30 min at 22° C. prior to dispensing to pre-form the complex of antiGST-Tb+GST-ATR+ATRIP. Then, 3 μl of the ATR-working solution were added to the test compound and the mixture was incubated for 10 min at 22° C. to allow pre-binding of the test compounds to ATR/ATRIP. Then, 2 μl of a 100 nM solution of either tracer A or B in assay buffer were added to the ATR-working solution. The resulting mixture was incubated for 30 min at 22° C. […] The dilution series were prepared separately before the assay on the level of the 100 fold concentrated solutions in DMSO by serial 1:3.4 dilutions in duplicate values for each concentration. IC50 values were calculated by a 4 parameter fit using standard software (GraphPad prism or equivalent).

[1] = tracer A, read-out: ATR binding (tracer A) IC50
[2] = tracer B, read-out: ATR binding (tracer B) IC50

full-length human ATR protein, sequence (Q13535 other isoform, or with tags, fused parts or gaps): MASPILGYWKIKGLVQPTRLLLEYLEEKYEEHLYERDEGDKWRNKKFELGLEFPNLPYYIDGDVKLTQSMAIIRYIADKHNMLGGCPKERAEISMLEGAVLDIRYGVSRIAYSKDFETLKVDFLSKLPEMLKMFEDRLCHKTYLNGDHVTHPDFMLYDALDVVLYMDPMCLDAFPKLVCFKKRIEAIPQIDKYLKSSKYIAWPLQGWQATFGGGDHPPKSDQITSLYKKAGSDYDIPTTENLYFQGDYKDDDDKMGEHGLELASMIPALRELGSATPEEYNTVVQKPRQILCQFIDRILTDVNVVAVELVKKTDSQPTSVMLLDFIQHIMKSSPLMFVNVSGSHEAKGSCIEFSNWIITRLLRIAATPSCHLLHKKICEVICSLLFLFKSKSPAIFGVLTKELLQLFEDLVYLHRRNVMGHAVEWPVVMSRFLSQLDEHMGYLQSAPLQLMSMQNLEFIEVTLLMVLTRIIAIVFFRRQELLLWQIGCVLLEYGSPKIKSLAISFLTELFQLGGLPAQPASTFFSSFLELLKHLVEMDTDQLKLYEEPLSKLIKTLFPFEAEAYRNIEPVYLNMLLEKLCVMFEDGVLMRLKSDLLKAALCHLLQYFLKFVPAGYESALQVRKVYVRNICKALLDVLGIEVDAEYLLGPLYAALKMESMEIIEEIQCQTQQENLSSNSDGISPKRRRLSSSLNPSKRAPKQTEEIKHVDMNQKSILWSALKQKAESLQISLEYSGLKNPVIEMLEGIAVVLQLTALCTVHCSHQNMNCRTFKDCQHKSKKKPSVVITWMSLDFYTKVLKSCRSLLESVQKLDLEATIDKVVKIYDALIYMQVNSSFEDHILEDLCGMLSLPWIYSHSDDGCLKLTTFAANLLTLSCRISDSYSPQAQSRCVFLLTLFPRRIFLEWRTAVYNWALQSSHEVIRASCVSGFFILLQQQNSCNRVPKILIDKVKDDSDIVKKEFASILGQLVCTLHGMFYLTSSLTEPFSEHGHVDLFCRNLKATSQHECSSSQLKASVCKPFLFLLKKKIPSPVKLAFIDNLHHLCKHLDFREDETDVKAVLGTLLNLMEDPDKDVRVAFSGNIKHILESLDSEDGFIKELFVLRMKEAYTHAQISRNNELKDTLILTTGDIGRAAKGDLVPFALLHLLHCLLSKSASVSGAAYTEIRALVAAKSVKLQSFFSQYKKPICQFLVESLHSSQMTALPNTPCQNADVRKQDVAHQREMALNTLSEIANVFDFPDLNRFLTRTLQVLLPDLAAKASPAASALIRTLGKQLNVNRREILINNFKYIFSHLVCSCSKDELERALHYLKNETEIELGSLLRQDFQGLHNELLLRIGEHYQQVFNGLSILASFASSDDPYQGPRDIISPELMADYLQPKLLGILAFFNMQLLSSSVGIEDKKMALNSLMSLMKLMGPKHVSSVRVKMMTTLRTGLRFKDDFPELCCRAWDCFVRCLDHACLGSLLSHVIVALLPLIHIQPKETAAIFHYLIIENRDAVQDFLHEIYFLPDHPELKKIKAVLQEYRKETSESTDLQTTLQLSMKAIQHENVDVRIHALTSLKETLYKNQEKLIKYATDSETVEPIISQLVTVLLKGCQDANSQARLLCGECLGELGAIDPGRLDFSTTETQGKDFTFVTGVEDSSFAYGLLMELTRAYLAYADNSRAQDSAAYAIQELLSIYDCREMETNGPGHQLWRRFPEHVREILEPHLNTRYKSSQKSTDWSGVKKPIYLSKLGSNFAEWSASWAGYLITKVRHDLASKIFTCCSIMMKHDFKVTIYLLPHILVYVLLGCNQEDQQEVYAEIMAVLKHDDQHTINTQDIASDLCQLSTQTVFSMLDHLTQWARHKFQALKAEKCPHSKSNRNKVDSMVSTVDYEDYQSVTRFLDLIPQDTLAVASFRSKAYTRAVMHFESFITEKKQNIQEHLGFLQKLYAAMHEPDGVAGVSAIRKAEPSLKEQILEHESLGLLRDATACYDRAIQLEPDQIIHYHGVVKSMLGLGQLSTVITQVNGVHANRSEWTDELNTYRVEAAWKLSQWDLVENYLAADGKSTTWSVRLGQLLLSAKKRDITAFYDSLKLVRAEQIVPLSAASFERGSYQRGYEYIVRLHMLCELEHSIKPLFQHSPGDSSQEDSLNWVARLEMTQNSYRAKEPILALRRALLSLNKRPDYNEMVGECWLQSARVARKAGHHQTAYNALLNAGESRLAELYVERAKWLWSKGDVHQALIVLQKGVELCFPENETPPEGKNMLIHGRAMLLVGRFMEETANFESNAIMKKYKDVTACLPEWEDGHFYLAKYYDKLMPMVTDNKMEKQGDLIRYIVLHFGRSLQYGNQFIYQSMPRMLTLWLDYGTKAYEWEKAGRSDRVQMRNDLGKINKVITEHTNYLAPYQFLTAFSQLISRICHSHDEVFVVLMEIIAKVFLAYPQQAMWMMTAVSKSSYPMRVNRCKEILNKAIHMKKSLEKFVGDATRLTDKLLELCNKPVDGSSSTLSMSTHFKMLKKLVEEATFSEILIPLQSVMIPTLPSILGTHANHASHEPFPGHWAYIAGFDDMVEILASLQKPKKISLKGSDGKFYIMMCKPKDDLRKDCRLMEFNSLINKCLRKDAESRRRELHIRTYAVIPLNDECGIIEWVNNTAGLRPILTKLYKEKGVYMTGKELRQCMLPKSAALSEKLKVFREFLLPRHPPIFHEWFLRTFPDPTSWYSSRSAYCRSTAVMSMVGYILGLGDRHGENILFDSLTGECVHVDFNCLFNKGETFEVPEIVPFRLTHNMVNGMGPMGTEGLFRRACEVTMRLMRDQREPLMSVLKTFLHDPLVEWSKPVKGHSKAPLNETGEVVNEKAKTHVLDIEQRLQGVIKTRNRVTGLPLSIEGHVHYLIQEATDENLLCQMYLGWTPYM
full-length human ATR protein, sequence (Q8WXE1 other isoform, or with tags, fused parts or gaps partner): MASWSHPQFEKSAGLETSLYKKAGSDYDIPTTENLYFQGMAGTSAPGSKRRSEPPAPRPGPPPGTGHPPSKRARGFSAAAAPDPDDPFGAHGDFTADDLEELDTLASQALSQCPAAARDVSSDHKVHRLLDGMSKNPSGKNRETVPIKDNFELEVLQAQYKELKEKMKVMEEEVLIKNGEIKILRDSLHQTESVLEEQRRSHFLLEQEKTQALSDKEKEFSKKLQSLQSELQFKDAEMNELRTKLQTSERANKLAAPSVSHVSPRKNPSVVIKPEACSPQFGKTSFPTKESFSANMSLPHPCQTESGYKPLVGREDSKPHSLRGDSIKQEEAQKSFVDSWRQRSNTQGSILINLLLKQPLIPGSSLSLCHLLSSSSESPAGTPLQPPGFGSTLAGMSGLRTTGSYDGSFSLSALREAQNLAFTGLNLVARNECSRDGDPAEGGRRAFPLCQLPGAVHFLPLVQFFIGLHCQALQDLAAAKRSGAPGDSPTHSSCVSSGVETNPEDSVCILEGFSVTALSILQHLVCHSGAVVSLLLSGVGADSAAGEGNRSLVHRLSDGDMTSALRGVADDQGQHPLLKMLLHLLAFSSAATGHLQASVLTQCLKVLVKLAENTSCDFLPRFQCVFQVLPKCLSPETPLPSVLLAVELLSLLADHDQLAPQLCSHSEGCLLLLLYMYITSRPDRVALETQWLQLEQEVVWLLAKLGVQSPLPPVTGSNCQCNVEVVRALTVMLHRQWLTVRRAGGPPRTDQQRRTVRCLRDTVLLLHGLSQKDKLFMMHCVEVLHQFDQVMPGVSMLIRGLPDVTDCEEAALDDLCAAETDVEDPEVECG

C[C@@H]1CN[C@@H](C)CN1c1cc(N2CCOCC2)nc2c(-c3ccn[nH]3)nccc12 (relative stereo) [Example 178, 4-[(trans)-2,5-dimethylpiperazin-1-yl]-2-(morpholin-4-yl)-8-(1H-pyrazol-5-yl)-1,7-naphthyridine]
pIC50 [1]: 6.42

C[C@@H]1COCCN1c1cc(N=S(C)(=O)c2ccccc2F)c2ccnc(-c3ccn[nH]3)c2n1 (single isomer, unassigned) [Example 140]
pIC50 [1]: 7.12

C[C@@H]1COCCN1c1cc(N=S(C)(=O)c2ccccc2F)c2ccnc(-c3ccn[nH]3)c2n1 (single isomer, unassigned) [Example 141]
pIC50 [1]: 6.41

C[C@@H]1COCCN1c1cc([C@H]2C[C@@H]2C)c2ccnc(-c3ccn[nH]3)c2n1 (stereo in doubt) [Example 171, 4-[(trans)-2-methylcyclopropyl]-2-[(3R)-3-methylmorpholin-4-yl]-8-(1H-pyrazol-5-yl)-1,7-naphthyridine]
pIC50 [1]: 7.02

NC(=O)[C@H]1CCCN1c1cc(N2CCOCC2)nc2c(-c3ccn[nH]3)nccc12 (stereo in doubt) [Example 428, 1-[2-(morpholin-4-yl)-8-(1H-pyrazol-5-yl)-1,7-naphthyridin-4-yl]-prolinamide]
pIC50 [1]: 7.16

OC[C@H]1CCCN(c2cc(N3CCOCC3)nc3c(-c4ccn[nH]4)nccc23)C1 (stereo in doubt) [Example 437, {1-[2-(morpholin-4-yl)-8-(1H-pyrazol-5-yl)-1,7-naphthyridin-4-yl]piperidin-3-yl}methanol]
pIC50 [1]: 6.93

CCOC(=O)N=S(C)(=O)c1ccc(-c2cc(N3CCOCC3)nc3c(-c4ccn[nH]4)nccc23)cc1 (stereo not drawn) [Example 1]
pIC50 [1]: 7.43 | pIC50 [2]: 7.62

CS(=N)(=O)c1ccc(-c2cc(N3CCOCC3)nc3c(-c4ccn[nH]4)nccc23)cc1 (stereo not drawn) [Example 2]
pIC50 [1]: 7.02 | pIC50 [2]: 7.42

CS(=O)(=O)c1ccc(-c2cc(N3CCOCC3)nc3c(-c4ccn[nH]4)nccc23)cn1 [Example 3, 4-[6-(methylsulfonyl)pyridin-3-yl]-2-(morpholin-4-yl)-8-(1H-pyrazol-5-yl)-1,7-naphthyridine]
pIC50 [1]: 7.24 | pIC50 [2]: 7.41

C1=C(c2cc(N3CCOCC3)nc3c(-c4cc[nH]n4)nccc23)CCOC1 [Example 4, 4-(3,6-dihydro-2H-pyran-4-yl)-2-(morpholin-4-yl)-8-(1H-pyrazol-3-yl)-[1,7]naphthyridine]
pIC50 [1]: 7.21 | pIC50 [2]: 7.36

CN=S(C)(=O)c1ccc(-c2cc(N3CCOCC3)nc3c(-c4ccn[nH]4)nccc23)cc1 (stereo not drawn) [Example 5, 4-[4-(N,S-dimethylsulfonimidoyl)phenyl]-2-[morpholin-4-yl]-8-(1H-pyrazol-5-yl)-1,7-naphthyridine]
pIC50 [1]: 7.19 | pIC50 [2]: 7.47

Cc1cc(S(C)(=O)=O)ncc1-c1cc(N2CCOCC2)nc2c(-c3ccn[nH]3)nccc12 [Example 6, 4-[4-methyl-6-(methylsulfonyl)pyridin-3-yl]-2-(morpholin-4-yl)-8-(1H-pyrazol-5-yl)-1,7-naphthyridine]
pIC50 [1]: 7.16

CS(=O)(=O)c1ccc(-c2cc(N3CCOCC3)nc3c(-c4cc[nH]n4)nccc23)cc1 [Example 7, 4-(4-methanesulphonylphenyl)-2-(morpholin-4-yl)-8-(1H-pyrazol-3-yl)-[1,7]naphthyridine]
pIC50 [1]: 7.23 | pIC50 [2]: 7.58

CS(=O)(=O)c1ccccc1-c1cc(N2CCOCC2)nc2c(-c3cc[nH]n3)nccc12 [Example 8, 4-(2-methanesulphonylphenyl)-2-(morpholin-4-yl)-8-(1H-pyrazol-3-yl)-[1,7]naphthyridine hydrochloride]
pIC50 [1]: 6.93 | pIC50 [2]: 7.16

COP(=O)(OC)c1ccc(-c2cc(N3CCOCC3)nc3c(-c4ccn[nH]4)nccc23)cc1 [Example 9, Dimethyl {4-[2-(morpholin-4-yl)-8-(1H-pyrazol-5-yl)-1,7-naphthyridin-4-yl]phenyl}phosphonate]
pIC50 [1]: 6.92 | pIC50 [2]: 6.90

C=C(C)c1cc(N2CCOCC2)nc2c(-c3cc[nH]n3)nccc12 [Example 10, 4-isopropenyl-2-(morpholin-4-yl)-8-(1H-pyrazol-3-yl)-[1,7]naphthyridine]
pIC50 [1]: 6.90 | pIC50 [2]: 7.36

c1ccc(-c2cc(N3CCOCC3)nc3c(-c4cc[nH]n4)nccc23)cc1 [Example 11, 2-(morpholin-4-yl)-4-phenyl-8-(1H-pyrazol-3-yl)-[1,7]naphthyridine]
pIC50 [1]: 6.87 | pIC50 [2]: 7.06

CCS(=N)(=O)c1ccc(-c2cc(N3CCOCC3)nc3c(-c4ccn[nH]4)nccc23)cc1 (stereo not drawn) [Example 12, 4-[4-(S-ethylsulfonimidoyl)phenyl]-2-(morpholin-4-yl)-8-(1H-pyrazol-5-yl)-1,7-naphthyridine]
pIC50 [1]: 6.87 | pIC50 [2]: 7.33

CCOC(=O)N=S(C)(=O)c1cccc(-c2cc(N3CCOCC3)nc3c(-c4ccn[nH]4)nccc23)c1 (stereo not drawn) [Example 13]
pIC50 [1]: 6.85 | pIC50 [2]: 6.98

CN1CC=C(c2cc(N3CCOCC3)nc3c(-c4ccn[nH]4)nccc23)CC1 [Example 14, 4-(1-methyl-1,2,3,6-tetrahydropyridin-4-yl)-2-(morpholin-4-yl)-8-(1H-pyrazol-5-yl)-1,7-naphthyridine]
pIC50 [1]: 6.79 | pIC50 [2]: 7.10

CS(=O)(=O)c1cccc(-c2cc(N3CCOCC3)nc3c(-c4cc[nH]n4)nccc23)c1 [Example 15, 4-(3-methanesulphonylphenyl)-2-(morpholin-4-yl)-8-(1H-pyrazol-3-yl)-[1,7]naphthyridine]
pIC50 [1]: 6.79 | pIC50 [2]: 6.76

Cc1cc(-c2cc(N3CCOCC3)nc3c(-c4ccn[nH]4)nccc23)cnc1S(C)(=O)=O [Example 16, 4-[5-methyl-6-(methylsulfonyl)pyridin-3-yl]-2-(morpholin-4-yl)-8-(1H-pyrazol-5-yl)-1,7-naphthyridine]
pIC50 [1]: 6.76

C1=C(c2cc(N3CCOCC3)nc3c(-c4ccn[nH]4)nccc23)CCNC1 [Example 17, 2-(morpholin-4-yl)-8-(1H-pyrazol-5-yl)-4-(1,2,3,6-tetrahydropyridin-4-yl)-1,7-naphthyridine]
pIC50 [1]: 6.73 | pIC50 [2]: 6.93

c1cc2c(C3CC3)cc(N3CCOCC3)nc2c(-c2cc[nH]n2)n1 [Example 18, 4-cyclopropyl-2-(morpholin-4-yl)-8-(1H-pyrazol-3-yl)-[1,7]naphthyridine]
pIC50 [1]: 6.64 | pIC50 [2]: 7.12

CS(=N)(=O)c1cccc(-c2cc(N3CCOCC3)nc3c(-c4ccn[nH]4)nccc23)c1 (stereo not drawn) [Example 19]
pIC50 [1]: 6.53 | pIC50 [2]: 6.74

Cc1cc(N2CCOCC2)nc2c(-c3cc[nH]n3)nccc12 [Example 20, 4-methyl-2-(morpholin-4-yl)-8-(1H-pyrazol-3-yl)-[1,7]naphthyridine hydrochloride]
pIC50 [1]: 6.09 | pIC50 [2]: 6.49

CS(=O)(=O)c1nc(-c2cc(N3CCOCC3)nc3c(-c4ccn[nH]4)nccc23)cs1 [Example 21, 4-[2-(methylsulfonyl)-1,3-thiazol-4-yl]-2-(morpholin-4-yl)-8-(1H-pyrazol-5-yl)-1,7-naphthyridine]
pIC50 [1]: 6.72

O=c1cc(-c2cc(N3CCOCC3)nc3c(-c4ccn[nH]4)nccc23)cc[nH]1 [Example 22, 4-[2-(morpholin-4-yl)-8-(1H-pyrazol-5-yl)-1,7-naphthyridin-4-yl]pyridin-2(1H)-one]
pIC50 [1]: 6.33

Oc1ccc(-c2cc(N3CCOCC3)nc3c(-c4ccn[nH]4)nccc23)cn1 [Example 23, 5-[2-(morpholin-4-yl)-8-(1H-pyrazol-5-yl)-1,7-naphthyridin-4-yl]pyridin-2(1H)-one]
pIC50 [1]: 6.35

CS(=O)(=O)c1ccc(-c2cc(N3CCOCC3)nc3c(-c4ccn[nH]4)nccc23)c(F)c1 [Example 24, 4-[2-fluoro-4-(methylsulfonyl)phenyl]-2-(morpholin-4-yl)-8-(1H-pyrazol-5-yl)-1,7-naphthyridine]
pIC50 [1]: 7.42 | pIC50 [2]: 7.68

CC(C)S(=N)(=O)c1ccc(-c2cc(N3CCOCC3)nc3c(-c4ccn[nH]4)nccc23)cc1 (stereo not drawn) [Example 25, 2-(morpholin-4-yl)-4-{4-[S-(propan-2-yl)sulfonimidoyl]phenyl}-8-(1H-pyrazol-5-yl)-1,7-naphthyridine]
pIC50 [1]: 6.96 | pIC50 [2]: 7.12

C[C@@H]1COCCN1c1cc(-c2ccc(S(C)(=O)=O)cc2)c2ccnc(-c3cc[nH]n3)c2n1 [Example 26, 4-(4-methanesulphonylphenyl)-2-((R)-3-methylmorpholin-4-yl)-8-(2H-pyrazol-3-yl)-[1,7]naphthyridine]
pIC50 [1]: 7.81 | pIC50 [2]: 8.20

C[C@@H]1COCCN1c1cc(-c2ccccc2)c2ccnc(-c3cc[nH]n3)c2n1 [Example 27, 2-((R)-3-methylmorpholin-4-yl)-4-phenyl-8-(2H-pyrazol-3-yl)-[1,7]naphthyridine]
pIC50 [1]: 7.76 | pIC50 [2]: 7.96

C[C@@H]1COCCN1c1cc(-c2cccc(S(C)(=O)=O)c2)c2ccnc(-c3cc[nH]n3)c2n1 [Example 28, 4-(3-methanesulphonylphenyl)-2-((R)-3-methylmorpholin-4-yl)-8-(2H-pyrazol-3-yl)-[1,7]naphthyridine]
pIC50 [1]: 7.75 | pIC50 [2]: 8.08
